Where two headings read alike, the source gives them in different places.
Target: T1, LRRK2 (Homo sapiens, UniProt Q5S007, G2019S)
T1 construct: purchased Invitrogen PV4882 (lot 567054A)
Experiment: In Vitro LRRK2 Assay (LabChip 3000, fluorescently-labeled peptide substrate, ATP)
Type: biochemical
In short: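 LRRK2, fluorescent peptide substrate (diluted to 4 μM before mixing), ATP and compound were incubated 2 h in the dark, then stopped. Phosphorylated and unphosphorylated peptide were separated by capillary electrophoresis and quantified by fluorescence. Ki was fitted with a tight-binding equation including enzyme concentration, S and Km; IC50 or percent inhibition were also reported.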

[1] = read-out: LRRK2 Ki (KI), Table 8
[2] = read-out: LRRK2 Ki (KI), Table 7
[3] = Table 10, LRRK2 Ki (micromolar), read-out: LRRK2 Ki (KI)
[4] = Table 9, LRRK2 Ki (micromolar), read-out: LRRK2 Ki (KI)

T1 sequence (Q5S007 whole entry G2019S): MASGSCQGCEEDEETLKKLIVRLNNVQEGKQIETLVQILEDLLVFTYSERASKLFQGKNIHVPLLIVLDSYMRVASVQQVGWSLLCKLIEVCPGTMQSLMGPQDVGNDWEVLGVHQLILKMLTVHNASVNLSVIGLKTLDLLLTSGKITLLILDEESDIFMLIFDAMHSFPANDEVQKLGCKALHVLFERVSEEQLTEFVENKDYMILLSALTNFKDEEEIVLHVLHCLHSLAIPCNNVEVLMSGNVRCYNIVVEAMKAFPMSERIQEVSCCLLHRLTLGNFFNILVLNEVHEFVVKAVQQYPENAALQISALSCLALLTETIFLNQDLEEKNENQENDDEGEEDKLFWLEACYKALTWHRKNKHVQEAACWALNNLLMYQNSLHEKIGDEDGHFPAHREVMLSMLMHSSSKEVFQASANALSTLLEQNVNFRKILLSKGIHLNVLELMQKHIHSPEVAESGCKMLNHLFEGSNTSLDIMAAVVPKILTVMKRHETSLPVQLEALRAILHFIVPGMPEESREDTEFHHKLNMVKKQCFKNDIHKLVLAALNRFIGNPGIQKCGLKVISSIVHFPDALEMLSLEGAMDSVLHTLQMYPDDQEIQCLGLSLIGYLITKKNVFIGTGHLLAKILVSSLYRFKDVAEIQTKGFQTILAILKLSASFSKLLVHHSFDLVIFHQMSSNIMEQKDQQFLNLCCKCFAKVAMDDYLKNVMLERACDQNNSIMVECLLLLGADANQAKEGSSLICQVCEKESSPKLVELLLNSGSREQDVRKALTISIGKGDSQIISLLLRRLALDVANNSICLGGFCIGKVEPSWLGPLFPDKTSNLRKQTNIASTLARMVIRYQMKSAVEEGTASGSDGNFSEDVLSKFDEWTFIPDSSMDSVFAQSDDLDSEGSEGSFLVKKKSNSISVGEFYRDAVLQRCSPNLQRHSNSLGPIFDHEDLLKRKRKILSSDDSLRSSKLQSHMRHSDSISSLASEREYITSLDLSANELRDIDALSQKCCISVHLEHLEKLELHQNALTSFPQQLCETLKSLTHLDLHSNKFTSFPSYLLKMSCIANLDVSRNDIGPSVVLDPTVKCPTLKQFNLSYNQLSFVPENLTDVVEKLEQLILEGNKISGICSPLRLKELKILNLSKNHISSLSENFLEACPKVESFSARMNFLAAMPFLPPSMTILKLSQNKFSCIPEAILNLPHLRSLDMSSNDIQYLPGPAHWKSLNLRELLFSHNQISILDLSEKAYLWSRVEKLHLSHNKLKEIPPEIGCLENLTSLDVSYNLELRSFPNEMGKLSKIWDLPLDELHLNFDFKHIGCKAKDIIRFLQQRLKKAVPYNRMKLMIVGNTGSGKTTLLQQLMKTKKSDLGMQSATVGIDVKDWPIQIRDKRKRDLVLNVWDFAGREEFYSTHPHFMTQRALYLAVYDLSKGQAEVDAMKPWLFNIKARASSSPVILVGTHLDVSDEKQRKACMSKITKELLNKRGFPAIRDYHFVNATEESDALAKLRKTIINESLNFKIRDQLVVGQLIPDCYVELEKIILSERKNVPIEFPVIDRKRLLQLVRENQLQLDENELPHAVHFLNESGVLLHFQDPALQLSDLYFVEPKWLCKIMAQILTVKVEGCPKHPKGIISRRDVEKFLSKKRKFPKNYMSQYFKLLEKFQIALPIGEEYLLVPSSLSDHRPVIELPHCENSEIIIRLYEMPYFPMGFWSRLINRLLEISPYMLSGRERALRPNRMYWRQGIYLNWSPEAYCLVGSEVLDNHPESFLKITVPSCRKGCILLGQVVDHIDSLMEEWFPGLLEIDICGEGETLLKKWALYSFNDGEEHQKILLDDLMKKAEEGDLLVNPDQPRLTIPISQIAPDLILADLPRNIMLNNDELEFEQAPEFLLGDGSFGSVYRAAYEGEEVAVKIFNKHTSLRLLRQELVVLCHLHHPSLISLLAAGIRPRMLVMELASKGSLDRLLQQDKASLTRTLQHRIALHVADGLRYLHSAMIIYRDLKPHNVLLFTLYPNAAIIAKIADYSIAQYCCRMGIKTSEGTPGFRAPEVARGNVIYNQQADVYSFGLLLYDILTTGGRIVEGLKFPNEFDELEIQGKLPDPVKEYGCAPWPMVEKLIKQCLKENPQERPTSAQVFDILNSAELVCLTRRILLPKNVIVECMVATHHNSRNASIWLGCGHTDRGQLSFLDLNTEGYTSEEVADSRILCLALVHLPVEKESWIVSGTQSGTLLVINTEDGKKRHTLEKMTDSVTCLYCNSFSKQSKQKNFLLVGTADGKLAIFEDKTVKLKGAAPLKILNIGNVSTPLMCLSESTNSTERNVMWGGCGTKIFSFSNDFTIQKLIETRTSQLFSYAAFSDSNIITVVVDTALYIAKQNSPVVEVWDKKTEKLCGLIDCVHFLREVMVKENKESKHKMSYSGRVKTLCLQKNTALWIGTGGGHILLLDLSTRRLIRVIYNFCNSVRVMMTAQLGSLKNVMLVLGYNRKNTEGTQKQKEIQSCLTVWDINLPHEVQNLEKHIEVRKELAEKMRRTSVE

SMILES: CNc1nc(Nc2cnn(CC(C)(C)N3CCOCC3)c2C)ncc1C(F)(F)F [Example 288, N4-Methyl-N2-[5-methyl-1-(2-methyl-2-morpholin-4-yl-propyl)-1H-pyrazol-4-yl]-5-trifluoromethyl-pyrimidine-2,4-diamine]
- Ki [1]: 7.7 nM

SMILES: CCNc1nc(Nc2cn(C3CCN(C(=O)C4CC4)CC3)nc2C)ncc1C(F)(F)F [Example 183, cyclopropyl(4-(4-(4-(ethylamino)-5-(trifluoromethyl)pyrimidin-2-ylamino)-3-methyl-1H-pyrazol-1-yl)piperidin-1-yl)methanone]
- Ki [1]: 0.6 nM

SMILES: COc1nc(Nc2cn(C3CCN(C(=O)C4(C)CC4)CC3)nc2C)ncc1Cl [Example 66, (4-(4-(5-chloro-4-methoxy-pyrimidin-2-ylamino)-3-methyl-1H-pyrazol-1-yl)piperidin-1-yl)(1-methylcyclo-propyl) methanone]
- Ki [2]: 66 nM

SMILES: CNc1nc(Nc2cnn(C)c2C)ncc1Br [Example 89, 5-Bromo-N^2-(1,5-dimethyl-1H-pyrazol-4-yl)-N^4-methylpyrimidine-2,4-diamine]
- Ki (read-out: LRRK2 Ki given in the example): 17 nM

SMILES: CCn1cc(Nc2ncc(Cl)c(OC)n2)c(C)n1 [Example 26, 5-Chloro-N-(1-ethyl-3-methyl-1H-pyrazol-4-yl)-4-methoxy-pyrimidin-2-amine]
- Ki [2]: 13 nM

SMILES: CNc1nc(Nc2cn([C@H](C)C#N)nc2C)ncc1C(F)(F)F [Example 437]
- Ki [3]: 6.5 nM

SMILES: CNc1nc(Nc2cnn(C3CC(C)OC(C)C3)c2C)ncc1C(F)(F)F (stereo not shown) [Example 272, N2-[1-(2,6-Dimethyl-tetrahydro-pyran-4-yl)-5-methyl-1H-pyrazol-4-yl]-N4-methyl-5-trifluoromethyl-pyrimidine-2,4-diamine]
- Ki [1]: 5.1 nM

SMILES: CNc1nc(Nc2cnn(-c3ccccc3)c2C)ncc1C#N [Example 360, 2-(5-methyl-1-phenyl-1H-pyrazol-4-ylamino)-4-(methylamino) pyrimidine-5-carbonitrile]
- Ki [4]: 1.3 nM

SMILES: CNc1nc(Nc2cn(C3CCN(C)CC3)nc2C)ncc1C(F)(F)F [Example 209, N4-methyl-N2-(3-methyl-1-(1-methylpiperidin-4-yl)-1H-pyrazol-4-yl)-5-(trifluoromethyl) pyrimidine-2,4-diamine]
- Ki [1]: 41 nM

SMILES: CNc1nc(Nc2cn(CC(C)(C)C#N)nc2C)ncc1C(F)(F)F [Example 420, 2,2-dimethyl-3-(3-methyl-4-(4-(methylamino)-5-(trifluoromethyl)pyrimidin-2-ylamino)-1H-pyrazol-1-yl)propanenitrile]
- Ki [3]: 2.8 nM

SMILES: CNc1nc(Nc2cnn(CC(=O)N(C)C)c2C)ncc1C(F)(F)F [Example 395, N,N-dimethyl-2-(5-methyl-4-(4-(methylamino)-5-(trifluoromethyl)pyrimidim-2-ylamino)-1H-pyrazol-1-yl)acetamide]
- Ki [3]: 15 nM

SMILES: CCNc1nc(Nc2cn(C(C)(C)c3nnc(C)[nH]3)nc2C)ncc1C(F)(F)F [Example 331, N4-Ethyl-N2-{3-methyl-1-[1-methyl-1-(5-methyl-4H-[1,2,4]triazol-3-yl)-ethyl]-1H-pyrazol-4-yl}-5-trifluoromethyl-pyrimidine-2,4-diamine]
- Ki [1]: 0.8 nM

SMILES: CNc1nc(Nc2cn(C(C)(C)c3ccn(C)n3)nc2C)ncc1C(F)(F)F [Example 345, N4-methyl-N2-(3-methyl-1-(2-(1-methyl-1H-pyrazol-3-yl)propan-2-yl)-1H-pyrazol-4-yl)-5-(trifluoromethyl) pyrimidine-2,4-diamine]
- Ki [1]: 115 nM

SMILES: CNc1nc(Nc2cnn(Cc3ccncn3)c2C)ncc1C(F)(F)F [Example 323, N4-Methyl-N2-(5-methyl-1-pyrimidin-4-ylmethyl-1H-pyrazol-4-yl)-5-trifluoromethyl-pyrimidine-2,4-diamine]
- Ki [1]: 2.2 nM

SMILES: CCNc1nc(Nc2cn(C3CCN(C4COC4)CC3F)nc2C)ncc1C(F)(F)F (stereo not shown) [Example 319, N4-Ethyl-N2-[1-(3-fluoro-1-oxetan-3-yl-piperidin-4-yl)-3-methyl-1H-pyrazol-4-yl]-5-trifluoromethyl-pyrimidine-2,4-diamine]
- Ki [1]: 0.3 nM

SMILES: CNc1nc(Nc2cn(CC(F)(F)F)nc2C)ncc1C#N [Example 359, 2-(3-methyl-1-(2,2,2-trifluoroethyl)-1H-pyrazol-4-ylamino)-4-(methylamino) pyrimidine-5-carbonitrile]
- Ki [4]: 53 nM

SMILES: CCCn1cc(Nc2ncc(C(F)(F)F)c(NC)n2)c(C)n1 [Example 120, N4-methyl-N2-(3-methyl-1-propyl-1H-pyrazol-4-yl)-5-(trifluoromethyl) pyrimidine-2,4-diamine]
- Ki [1]: 0.6 nM

SMILES: CNc1nc(Nc2cn(C(C)c3ccccn3)nc2C)ncc1C(F)(F)F (stereo not shown) [Example 224, N4-methyl-N2-(3-methyl-1-(1-(pyridin-2-yl)ethyl)-1H-pyrazol-4-yl)-5-(trifluoromethyl) pyrimidine-2,4-diamine]
- Ki [1]: 2.4 nM

SMILES: CNc1nc(Nc2cnn(C(C)(C)C(=O)N(C)C)c2C)ncc1C(F)(F)F [Example 399, N,N,2-trimethyl-2-(5-methyl-4-(4-(methylamino)-5-(trifluoromethyl)pyrimidin-2-ylamino)-1H-pyrazol-1-yl)propanamide]
- Ki [3]: 314 nM

SMILES: CNc1nc(Nc2cnn(-c3cc(F)cc(F)c3)c2C)ncc1Br [Example 115, 5-bromo-N2-(1-(3,5-difluorophenyl)-5-methyl-1H-pyrazol-4-yl)-N4-methylpyrimidine-2,4-diamine]
- Ki [1]: 31 nM

SMILES: CCNc1nc(Nc2cn(S(C)(=O)=O)nc2C)ncc1C(F)(F)F [Example 160, N4-ethyl-N2-(3-methyl-1-(methylsulfonyl)-1H-pyrazol-4-yl)-5-(trifluoromethyl) pyrimidine-2,4-diamine]
- Ki [1]: 0.3 nM

SMILES: CNc1nc(Nc2cn([C@H](C)C(=O)N(C)C)nc2C)ncc1C(F)(F)F [Example 404, (R)-N,N-dimethyl-2-(3-methyl-4-(4-(methylamino)-5-(trifluoromethyl)pyrimidin-2-ylamino)-1H-pyrazol-1-yl)propanamide]
- Ki [3]: 18 nM

SMILES: COc1nc(Nc2cn(C3CCN(CCF)CC3)nc2C)ncc1Cl [Example 86, (5-Chloro-4-methoxy-pyrimidin-2-yl)-{1-[1-(2-fluoro-ethyl)-piperidin-4-yl]-3-methyl-1H-pyrazol-4-yl}-amine]
- Ki [2]: 183 nM

SMILES: COc1nc(Nc2cnn(C3CCOCC3)c2Cl)ncc1Cl [Example 85, (5-Chloro-4-methoxy-pyrimidin-2-yl)-[5-chloro-1-(tetrahydro-pyran-4-yl)-1H-pyrazol-4-yl]-amine]
- Ki [2]: 6.6 nM

SMILES: CNc1nc(Nc2cn(-c3ncccn3)nc2C)ncc1C(F)(F)F [Example 128, N4-methyl-N2-(3-methyl-1-(pyrimidin-2-yl)-1H-pyrazol-4-yl)-5-(trifluoromethyl) pyrimidine-2,4-diamine]
- Ki [1]: 11.4 nM

SMILES: CCNc1nc(Nc2cnn(CC)c2C)ncc1C#N [Example 363, 2-(1-ethyl-5-methyl-1H-pyrazol-4-ylamino)-4-(ethylamino) pyrimidine-5-carbonitrile]
- Ki [4]: 6 nM

SMILES: CCNc1nc(Nc2cn(CC(C)(C)O)nc2C)ncc1C(F)(F)F [Example 297, 1-[4-(4-Ethylamino-5-trifluoromethyl-pyrimidin-2-ylamino)-3-methyl-pyrazol-1-yl]-2-methyl-propan-2-ol]
- Ki [1]: 2.1 nM

SMILES: CNc1nc(Nc2cnn(Cc3cccc(C)n3)c2C)ncc1C(F)(F)F [Example 314, N4-Methyl-N2-[5-methyl-1-(6-methyl-pyridin-2-ylmethyl)-1H-pyrazol-4-yl]-5-trifluoromethyl-pyrimidine-2,4-diamine]
- Ki [1]: 1.5 nM

SMILES: COc1nc(Nc2cn(C3CCOCC3)nc2C)ncc1Cl [Example 65, 5-chloro-4-methoxy-N-(3-methyl-1-(tetrahydro-2H-pyran-4-yl)-1H-pyrazol-4-yl)pyrimidin-2-amine]
- Ki [2]: 2.9 nM

SMILES: CNc1nc(Nc2cn(CC3(C)COC3)nc2C)ncc1C(F)(F)F [Example 118, N4-methyl-N2-(3-methyl-1-((3-methyloxetan-3-yl)methyl)-1H-pyrazol-4-yl)-5-(trifluoromethyl) pyrimidine-2,4-diamine]
- Ki [1]: 7.2 nM

SMILES: CCNc1nc(Nc2cnn(C)c2C)ncc1C(F)(F)F [Example 261, N2-(1,5-Dimethyl-1H-pyrazol-4-yl)-N4-ethyl-5-trifluoromethyl-pyrimidine-2,4-diamine]
- Ki [1]: 1.3 nM

SMILES: CNc1nc(Nc2cn(-c3cncnc3)nc2C)ncc1C(F)(F)F [Example 140, N4-methyl-N2-(3-methyl-1-(pyrimidin-5-yl)-1H-pyrazol-4-yl)-5-(trifluoromethyl) pyrimidine-2,4-diamine]
- Ki [1]: 6.1 nM

SMILES: CCNc1nc(Nc2cnn(CCOC)c2C)ncc1C(F)(F)F [Example 295, N4-Ethyl-N2-[1-(2-methoxy-ethyl)-5-methyl-1H-pyrazol-4-yl]-5-trifluoromethyl-pyrimidine-2,4-diamine]
- Ki [1]: 0.4 nM

SMILES: CNc1nc(Nc2cn(-c3ccccc3)nc2C)ncc1C#N [Example 354, 2-(3-methyl-1-phenyl-1H-pyrazol-4-ylamino)-4-(methylamino) pyrimidine-5-carbonitrile]
- Ki [4]: 120 nM

SMILES: CNc1nc(Nc2cnn([C@@H](C)C#N)c2C)ncc1C(F)(F)F [Example 415, (S)-2-(5-methyl-4-(4-(methylamino)-5-(trifluoromethyl)pyrimidin-2-ylamino)-1H-pyrazol-1-yl)propanenitrile]
- Ki [3]: 9.5 nM

SMILES: CNc1nc(Nc2c[nH]nc2C)ncc1C(F)(F)F [Example 103, N4-methyl-N2-(3-methyl-1H-pyrazol-4-yl)-5-(trifluoromethyl) pyrimidine-2,4-diamine]
- Ki [1]: 9 nM

SMILES: CNc1nc(Nc2cn(-c3ccnc(C)c3)nc2C)ncc1C(F)(F)F [Example 143, N4-methyl-N2-(3-methyl-1-(2-methylpyridin-4-yl)-1H-pyrazol-4-yl)-5-(trifluoromethyl) pyrimidine-2,4-diamine]
- Ki [1]: 6.9 nM

From US8815882B2, “Pyrazole aminopyrimidine derivatives as LRRK2 modulators” (Genentech, Inc., priority 2010, dated 2014)
